Results published in patent publication US20080241265A1, “Pharmaceutical Combinations Containing Lamivudine, Stavudine and Nevirapine” (priority 2005, published 2008).
Entries after “also recorded” stand apart in the source; their conditions may differ.

Experiment: Compatibility study of homogeneous mixtures of the active ingredients (appearance and impurities after storage)
Type: physicochemical
Settings: conclusion from the four-week mixture study
Description: Study was designed so as to evaluate the physico-chemical parameters of these three drugs.

SMILES	Compatibility with the other active ingredient
Nc1ccn([C@@H]2CS[C@H](CO)O2)c(=O)n1 [Lamivudine, (2R-cis)-4-Amino-1-[2-(hydroxymethyl) 1,3-oxathiolan-5-yl]-2(1H)-pyrimidinone]	compatible with Nevirapine; also recorded: not with Stavudine
Cc1cn([C@H]2C=C[C@@H](CO)O2)c(=O)[nH]c1=O [stavudine, (3′-deoxythymidin-2′-ene(3′-deoxy-2′,3′-didehydrothymidine)]	incompatible with nevirapine
